What was measured:
Assay type in all cases: functional
Onchocerca lienalis [1] = test: MMV: Percent motility assay at a compound concentration of 1.25e-5 M. Activity score legend: 3: Active, 2: Moderately active; 1: Inactive, 0: Toxic; details: at 12.5 µM
Onchocerca lienalis [2] = test: MMV: Percent motility assay at a compound concentration of 3.1e-6 M. Activity score legend: 3: Active, 2: Moderately active; 1: Inactive, 0: Toxic; details: at 3.1 µM
Onchocerca lienalis [3] = test: MMV: Percent motility assay at a compound concentration of 1.9e-7 M. Activity score legend: 3: Active, 2: Moderately active; 1: Inactive, 0: Toxic; details: at 0.19 µM
Onchocerca lienalis [4] = test: MMV: Percent motility assay at a compound concentration of 7.8e-7 M. Activity score legend: 3: Active, 2: Moderately active; 1: Inactive, 0: Toxic; details: at 0.78 µM

SMILES	Motility (Onchocerca lienalis [1]) [%]	Motility (Onchocerca lienalis [2]) [%]	Motility (Onchocerca lienalis [3]) [%]	Motility (Onchocerca lienalis [4]) [%]
CN(C)CCCNc1c2ccccc2nc2ccccc12	100	100	100	100
COc1ccc(-c2c(C)nn3c(N)c(C#N)cnc23)cc1OC	100	100	100	100
CSC1=NC(=Nc2c(C)cccc2C)C2(CCC(C(C)(C)C)CC2)N1c1ccc(Cl)cc1 (configuration not stated)	100	100	100	100
Cc1cc(C)cc(Nc2cc(C)nc3nc(C(F)(F)F)nn23)c1	100	100	100	100
O=C(NCC(c1ccsc1)N1CCCCCC1)c1ccc(C(F)(F)F)cc1 (configuration not stated)	100	100	100	100
COc1ccc(-c2cc3c(SCC(=O)Nc4cc(C(F)(F)F)ccc4Cl)nccn3n2)cc1	100	100	100	100
Cc1ccc(-c2cc3c(SCC(=O)Nc4cc(C(F)(F)F)ccc4Cl)nccn3n2)cc1	100	100	100	100
CCCCCC(=O)N1c2ccccc2N=C2CC(c3ccc(OC)c(OC)c3)CC(O)=C2C1c1ccc(C(F)(F)F)cc1 (configuration not stated)	100	100	100	100
Cc1cc(NCCN2CCCCC2)c2ccc3ccccc3c2n1	100	100	100	100
COc1ccc(-c2nc(NC(=O)CS(=O)(=O)c3ccc(F)cc3)sc2C)cc1	100	100	100	100
O=C(O)C1Cc2c([nH]c3ccccc23)C(c2ccc(Cl)cc2Cl)N1 (configuration not stated)	100	100	100	100
Cc1ccc(N2C(=O)C3C(C2=O)C2(c4ccccc4)C(=O)C3(c3ccccc3)C(c3ccccc3)=C2c2ccccc2)cc1 (configuration not stated)	100	100	100	100
CCc1c(C)c(=N)c2ccccc2n1C.I	100	100	100	100
COc1cccc(NC(=O)[C@H](C(C)C)n2c(=O)[nH]c3ccccc3c2=O)c1	100	100	100	100
CCOC(=O)c1cn(CC)c2cc(N(C)CCc3ccc(OC)c(OC)c3)c(F)cc2c1=O	100	100	100	100
CC(C)(C)c1ccc(O)c(CNC2CCCCC2)c1	100	100	100	100
O=[N+]([O-])c1ccc(C=NNc2nc3ccccc3[nH]2)cc1	100	100	100	100
COc1ccc(C2=C(c3ccc(OC)cc3)C3(c4ccccc4)C(=O)C2(c2ccccc2)C2C(=O)N(c4ccc(C)cc4)C(=O)C23)cc1 (configuration not stated)	100	100	100	100
CCOC(=O)C1=C(c2ccccc2)N=c2sc(=Cc3cc(C)n(-c4ccc(F)cc4)c3C)c(=O)n2C1c1cccc(OC)c1OC (configuration not stated)	100	100	100	100

SMILES	Motility (Onchocerca lienalis [1]) [%]	Motility (Onchocerca lienalis [2]) [%]	Motility (Onchocerca lienalis [3]) [%]	Motility (Onchocerca lienalis [4]) [%]
CCC1(C)CC(CCNCc2ccccc2O)(c2ccc(C)cc2)CCO1 (configuration not stated)	100	100	100	100
Cc1cc(Nc2ccc(C)c(Cl)c2)n2nc(C(F)(F)F)nc2n1	100	100	100	100
Fc1ccc2[nH]c3c(NCCCN4CCOCC4)ncnc3c2c1	100	100	100	100
COc1ccc(C=C2SC(=N)N(c3ccccc3OC)C2=O)cc1	100	100	100	100
Cc1cccc(Nc2nc(N)c3ccccc3n2)c1.Cl	100	100	100	100
CCn1c(CN2CCN(Cc3ccccc3)CC2)nc2cc(NC(=O)c3cccs3)ccc21	100	100	100	100
COc1ccccc1CNC(=O)CCn1c(=O)[nH]c2ccccc2c1=O	100	100	100	100
COc1cc(OC)c(N(C)C(=O)c2cc3c(s2)-c2ccccc2S(=O)(=O)C3)cc1Cl	100	100	100	100
Cl.Oc1ccccc1CNCC12CC3CC(CC(C3)C1)C2	100	100	100	100
CNCCCNc1ccnc2cc(Cl)ccc12	100	100	100	100
COc1ccccc1CNC(=O)CCn1c(=O)[nH]c2ccsc2c1=O	100	100	100	100
COc1ccc(Br)cc1C1Nc2ccc3ccccc3c2C2=C1C(=O)CC(c1ccccc1)C2 (configuration not stated)	66.66	100	100	100
Cc1cc(C=C2SC(=Nc3ccccc3)N(C3CCCC3)C2=O)c(C)n1-c1ccc(Cl)cc1	100	100	100	100
CC1CCN(Cc2ccc(NC(=O)c3cc4ccc5cccnc5c4[nH]3)cc2)CC1	100	100	100	100
CCc1ccc(Nc2cc(C)c3ccc(O)cc3n2)cc1.Cl	66.66	100	100	100
CSc1ccccc1C(=O)Nc1nc(-c2ccccn2)cs1	33.33	100	100	100
COc1ccc(C(C)=O)cc1N1C(=O)C2C(C1=O)C1(c3ccccc3)C(=O)C2(c2ccccc2)C(c2ccc(C)cc2)=C1c1ccc(C)cc1 (configuration not stated)	100	100	100	100
CCCc1c(CC)c(=N)c2ccccc2n1C	100	100	100	100
CCOC(=O)c1cnc2c(C)cc(C)cc2c1Nc1ccc(OC)c(OC)c1	100	100	100	100
